Source: patent US12225903B2, “Synergistic cleaning disinfectant solution with enhanced stability, and methods of using the same” (Diversey, Inc., priority 2019, dated 2025)
Like-named read-outs stand apart in the source and are kept apart here.

What was measured:
[1] = test system: fungus Aspergillus niger and yeast Saccharomyces cerevisiae; assay: Amount of antimicrobial acid required to pass EN1650:2008 (antifungal activity); format: cell-based; conditions: gluconic and salicylic acid used in combination
Excerpt: To pass the EN 1650:2008 antimicrobial testing protocol, a log reduction of greater than or equal to 4 must be achieved in fifteen minutes.

[2] = test system: bacteria Staphylococcus aureus, Escherichia coli, and Lactobacillus brevis; assay: Amount of antimicrobial acid required to pass EN1276:2009 (antibacterial activity); format: cell-based; conditions: gluconic and salicylic acid used in combination
Excerpt: To pass the EN1276 test method, a log reduction of greater than or equal to 5 must be achieved in five minutes.

[3] = in combination with gluconic acid

SMILES | Concentration of Antimicrobial Acids required to pass ([1]; Clean, 4° C.) [ppm] | Concentration of Antimicrobial Acids required to pass ([1]; Clean, 25° C.) [ppm] | Concentration of Antimicrobial Acids required to pass ([1]; Dirty, 4° C.) [ppm] | Concentration of Antimicrobial Acids required to pass ([1]; Dirty, 25° C.) [ppm] | Concentration of Antimicrobial Acids required to pass ([2]; Clean, 4° C.) [ppm] | Concentration of Antimicrobial Acids required to pass ([2]; Clean, 25° C.) [ppm] | Concentration of Antimicrobial Acids required to pass ([2]; Dirty, 4° C.) [ppm] | Concentration of Antimicrobial Acids required to pass ([2]; Dirty, 25° C.) [ppm] | required amount of salicylic acid in the disclosed cleaning disinfectant solution [3] | required amount of salicylic acid in the disclosed cleaning disinfectant solution ([3]; to pass EN1276:2009 and EN1650:2008)
O=C(O)[C@H](O)[C@@H](O)[C@H](O)[C@H](O)CO [Gluconic Acid, Gluconic acid] | 750 | 600 | 750 | 750 | 300 | 150 | 300 | 150 | – | –
O=C(O)c1ccccc1O [Salicylic Acid, Salicylic acid] | 188 | 150 | 188 | 188 | 75 | 37 | 75 | 37 | less than 2 % by weight | less than 2 wt %
